Measured values: patent publication US10662205B2, “Cyclic boronic acid ester derivatives and therapeutic uses thereof” (priority 2014, dated 2020)
Where two headings read alike, the source gives them in different places.

Experiments:
[1] = system: KP1010 (SHV-12); experiment: Tigemonam potentiation (MPC@4); assay type: cell-based
[2] = system: ec302 (TEM-10); experiment: Tigemonam potentiation (MPC@4); assay type: cell-based; conditions: tigemonam 4 μg/mL
[3] = target: KPC-2 (Klebsiella pneumoniae, UniProt Q9F663); experiment: Inhibition of nitrocefin cleavage by purified enzyme (Ki); assay type: biochemical; conditions: nitrocefin reporter substrate; 10 min preincubation; read-out: Ki KPC-2, NCF
KPC-2, sequence (Q9F663 25-293, looked up, species assumed): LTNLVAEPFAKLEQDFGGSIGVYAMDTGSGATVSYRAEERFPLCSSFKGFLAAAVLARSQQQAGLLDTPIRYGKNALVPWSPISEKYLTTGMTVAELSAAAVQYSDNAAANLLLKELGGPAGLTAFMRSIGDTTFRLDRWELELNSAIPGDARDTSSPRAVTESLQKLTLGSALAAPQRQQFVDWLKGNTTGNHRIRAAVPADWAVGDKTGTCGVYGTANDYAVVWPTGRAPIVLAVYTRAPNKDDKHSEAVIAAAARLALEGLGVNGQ
Protocol: (§1) Ki values of inhibition of purified class A, C and D enzymes were determined spectrophotometrically using nitrocefin as reporter substrate. Purified enzymes were mixed with various concentrations of inhibitors in reaction buffer and incubated for 10 min at room temperature. Nitrocefin was added and substrate cleavage profiles were recorded at 490 nm every 10 sec for 10 min. These experiments confirmed that the described compounds are inhibitors with a broad-spectrum of activity towards various β-lactamases.

[4] = target: OXA-48 (Klebsiella pneumoniae, UniProt Q6XEC0); experiment: as above; assay type: biochemical; conditions: nitrocefin reporter substrate; 10 min preincubation; read-out: Ki OXA-48, NCF
OXA-48, sequence (Q6XEC0 23-265, looked up, species assumed): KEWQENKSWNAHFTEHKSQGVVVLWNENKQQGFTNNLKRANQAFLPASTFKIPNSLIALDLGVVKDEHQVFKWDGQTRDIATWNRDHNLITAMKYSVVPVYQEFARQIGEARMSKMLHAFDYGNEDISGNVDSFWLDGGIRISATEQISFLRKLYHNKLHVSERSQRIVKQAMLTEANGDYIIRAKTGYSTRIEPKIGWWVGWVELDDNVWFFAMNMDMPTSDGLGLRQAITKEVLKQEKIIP
Protocol: as §1

[5] = target: CMY-2 (Klebsiella pneumoniae, UniProt Q48434); experiment: as above; assay type: biochemical
CMY-2, sequence (Q48434 21-381, species assumed): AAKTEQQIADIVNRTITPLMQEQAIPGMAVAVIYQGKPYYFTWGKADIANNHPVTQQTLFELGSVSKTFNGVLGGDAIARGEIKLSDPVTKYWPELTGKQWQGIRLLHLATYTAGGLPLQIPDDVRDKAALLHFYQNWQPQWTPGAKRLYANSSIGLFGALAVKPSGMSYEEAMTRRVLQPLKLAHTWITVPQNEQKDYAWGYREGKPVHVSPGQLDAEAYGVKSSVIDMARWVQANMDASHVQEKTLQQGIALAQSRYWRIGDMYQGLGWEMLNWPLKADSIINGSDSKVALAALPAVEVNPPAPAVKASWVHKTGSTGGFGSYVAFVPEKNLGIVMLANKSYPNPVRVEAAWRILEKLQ
Protocol: as §1

[6] = system: ec302 (TEM-10); experiment: Aztreonam potentiation (MPC@4); assay type: cell-based; conditions: aztreonam 4 μg/mL
[7] = system: EC1010 (CMY-6); experiment: Tigemonam potentiation (MPC@4); assay type: cell-based; conditions: tigemonam 4 μg/mL; EC1010, CMY-6
[8] = system: EC1010 (CMY-6); experiment: Aztreonam potentiation (MPC@4); assay type: cell-based; conditions: aztreonam 4 μg/mL
[9] = system: PAM1032/KPC-2; experiment: Biapenem potentiation MPC64, efflux proficient strain; assay type: cell-based, Pseudomonas aeruginosa; parameters: unit not given here; conditions: efflux proficient (MexAB-OprM overexpressed); decrease biapenem MIC 64-fold, 32 to 0.5 μg/ml
Protocol: (§2) Efflux of BLIs from Pseudomonas aeruginosa by the MexAB-OprM efflux pump was also evaluated. The plasmid expressing the gene encoding KPC-2 was introduced into two strains of P. aeruginosa, PAM1032 and PAM1154 that overexpressed or lacked MexAB-OprM, respectively. Due to expression of KPC-2 both strains became resistant to biapenem. […] Potency of BLIs to potentiate biapenem in these strains was determined. […] The ratio of MPC64 values for each BLI in PAM1032/KPC-2 (efflux proficient) and PAM1154/KPC-2 (efflux deficient) was determined to generate the Efflux Index (EI).

[10] = system: PAM1154/KPC-2; experiment: Biapenem potentiation MPC64, efflux deficient strain; assay type: cell-based, Pseudomonas aeruginosa; parameters: unit not given here; conditions: efflux deficient (lacks MexAB-OprM); decrease biapenem MIC 64-fold, 32 to 0.5 μg/ml
Protocol: as §2

[11] = system: KP1086 (OXA-48); experiment: Biapenem potentiation (MPC@1); conditions: biapenem 1 μg/mL
[12] = system: KP1009 (CTX-M-15); experiment: Aztreonam potentiation (MPC@4); assay type: cell-based; conditions: aztreonam 4 μg/mL
[13] = target: P99 (Enterobacter cloacae, UniProt P05364); experiment: biochemical; conditions: nitrocefin reporter substrate; 10 min preincubation; read-out: Ki P99, NCF
P99, sequence (P05364 21-381): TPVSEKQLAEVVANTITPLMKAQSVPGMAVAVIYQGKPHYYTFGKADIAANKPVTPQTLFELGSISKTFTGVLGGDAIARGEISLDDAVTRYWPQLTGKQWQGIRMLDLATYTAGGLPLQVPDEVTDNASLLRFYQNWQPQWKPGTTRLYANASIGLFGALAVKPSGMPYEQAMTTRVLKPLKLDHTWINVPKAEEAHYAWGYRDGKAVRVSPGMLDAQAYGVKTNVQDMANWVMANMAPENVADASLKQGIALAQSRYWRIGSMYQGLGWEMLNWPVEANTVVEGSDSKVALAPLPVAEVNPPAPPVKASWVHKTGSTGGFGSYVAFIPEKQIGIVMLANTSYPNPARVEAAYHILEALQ
Protocol: as §1, with “min.” for “min. These experiments confirmed that the described compounds are inhibitors with a broad-spectrum of activity towards various β-lactamases.”

[14] = target: SHV-12 (Klebsiella pneumoniae, UniProt P0AD64, E235K/G234S/L31Q); experiment: Inhibition of nitrocefin cleavage by purified enzyme (Ki); assay type: biochemical
SHV-12, sequence (P0AD64 22-286 L31Q/G234S/E235K): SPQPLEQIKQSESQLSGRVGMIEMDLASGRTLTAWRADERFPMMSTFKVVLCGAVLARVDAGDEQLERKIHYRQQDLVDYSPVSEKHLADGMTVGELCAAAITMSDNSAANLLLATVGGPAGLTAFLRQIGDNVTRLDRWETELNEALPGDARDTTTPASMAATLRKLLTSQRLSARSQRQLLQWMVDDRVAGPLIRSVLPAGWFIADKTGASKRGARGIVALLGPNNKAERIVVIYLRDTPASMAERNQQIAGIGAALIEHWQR
Protocol: as §1, with “min.” for “min. These experiments confirmed that the described compounds are inhibitors with a broad-spectrum of activity towards various β-lactamases.”

[15] = target: CTX-M-14 (Escherichia coli, UniProt Q9L5C7); experiment: as above; assay type: biochemical; conditions: nitrocefin reporter substrate; 10 min preincubation; read-out: Ki CTX-M-14, NCF
CTX-M-14, sequence (Q9L5C7 29-291): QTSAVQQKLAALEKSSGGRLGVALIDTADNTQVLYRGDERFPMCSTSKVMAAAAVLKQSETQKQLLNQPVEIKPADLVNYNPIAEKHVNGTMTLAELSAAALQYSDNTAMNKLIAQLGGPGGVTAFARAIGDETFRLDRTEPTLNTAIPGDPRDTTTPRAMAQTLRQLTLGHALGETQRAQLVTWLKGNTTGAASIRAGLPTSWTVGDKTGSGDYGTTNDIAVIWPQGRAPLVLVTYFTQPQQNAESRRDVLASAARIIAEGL
Protocol: as §1, with “min.” for “min. These experiments confirmed that the described compounds are inhibitors with a broad-spectrum of activity towards various β-lactamases.”

[16] = system: KP1009 (CTX-M-15); experiment: Tigemonam potentiation (MPC@4); assay type: cell-based
[17] = system: KP1004 (KPC-2); experiment: Aztreonam potentiation (MPC@4); assay type: cell-based; conditions: aztreonam 4 μg/mL
[18] = system: ec308 (SHV-5); experiment: Aztreonam potentiation (MPC@4); assay type: cell-based; conditions: aztreonam 4 μg/mL
[19] = system: KP1004 (KPC-2); experiment: Biapenem potentiation (MPC@1); conditions: biapenem 1 μg/mL
[20] = system: KP1010 (SHV-12); experiment: Aztreonam potentiation (MPC@4); assay type: cell-based; conditions: aztreonam 4 μg/mL
[21] = system: KP1005 (CTX-M-14); experiment: Tigemonam potentiation (MPC@4); assay type: cell-based; conditions: tigemonam 4 μg/mL
[22] = system: ECL1002; experiment: Aztreonam potentiation (MPC@4); assay type: cell-based; conditions: aztreonam 4 μg/mL
[23] = system: ECL1002; experiment: Tigemonam potentiation (MPC@4); assay type: cell-based; conditions: tigemonam 4 μg/mL
[24] = system: KP1005 (CTX-M-14); experiment: Aztreonam potentiation (MPC@4); assay type: cell-based; conditions: aztreonam 4 μg/mL
[25] = system: ec308 (SHV-5); experiment: Tigemonam potentiation (MPC@4); assay type: cell-based; conditions: tigemonam 4 μg/mL
[26] = nitrocefin reporter substrate, 10 min preincubation, read-out: Ki CMY-2, NCF

Row | Compound | MPC@4 tigemonam potentiation [1] | MPC@4 tigemonam potentiation [2] | Ki [3] | Ki [4] | Ki [5, 26] | MPC@4 aztreonam potentiation [6] | MPC@4 tigemonam potentiation [7] | MPC@4 aztreonam potentiation [8] | MPC@1 biapenem potentiation [11] | MPC@4 aztreonam potentiation [12] | Ki [13] | Ki [14] | Ki [15] | MPC@4 tigemonam potentiation [16] | MPC@4 aztreonam potentiation [17] | MPC@1 biapenem potentiation [19] | MPC@4 aztreonam potentiation [20] | MPC@4 aztreonam potentiation [22] | MPC@4 aztreonam potentiation [24] | MPC@4 tigemonam potentiation [25] | also measured
1 | O=C(CSc1nncs1)N[C@H]1CC=C[C@@H]2CC(=O)OB1O2 [Compound 7, 2-(1,3,4-THIADIAZOL-2-YLTHIO)-N-((2R,6S)-8-OXO-9,10-DIOXA-1-BORABICYCLO[4.3.1]DEC-4-EN-2-YL)ACETAMIDE] | X (key: X = MPC@4 ≤ 5 μg/mL; Y = 5 μg/mL < MPC@4 ≤ 20 μg/mL; Z = MPC@4 > 20 μg/mL) | Y (Y = 5 μg/mL < MPC@4 ≤ 20 μg/mL) | 100 to 1000 nM | < 100 nM | < 100 nM | X (X = MPC@4 ≤ 5 μg/mL) | X (X = MPC@4 ≤ 5 μg/mL) | X (X = MPC@4 ≤ 5 μg/mL) | Z (Z = MPC@1 > 20 μg/mL) | X (X = MPC@4 ≤ 5 μg/mL) | < 100 nM | < 100 nM | < 100 nM | X (key: X = MPC@4 ≤ 5 μg/mL; Y = 5 μg/mL < MPC@4 ≤ 20 μg/mL; Z = MPC@4 > 20 μg/mL) | X (X = MPC@4 ≤ 5 μg/mL) | X (X = MPC@1 ≤ 5 μg/mL) | X (X = MPC@4 ≤ 5 μg/mL) | X (X = MPC@4 ≤ 5 μg/mL) | X (X = MPC@4 ≤ 5 μg/mL) | X (X = MPC@4 ≤ 5 μg/mL) | PAM1032/KPC-2 Biapenem MPC64 [9]: 40; PAM1154/KPC-2 Biapenem MPC64 [10]: 5; MPC@4 aztreonam potentiation [18]: X (X = MPC@4 ≤ 5 μg/mL); MPC@4 tigemonam potentiation [21]: X (X = MPC@4 ≤ 5 μg/mL); MPC@4 tigemonam potentiation [23]: X (X = MPC@4 ≤ 5 μg/mL)
2 | Cc1nnc(SCC(=O)N[C@H]2CC=C[C@@H]3CC(=O)OB2O3)s1 [Compound 8, 2-(5-METHYL-1,3,4-THIADIAZOL-2-YLTHIO)-N-((2R,6S)-8-OXO-9,10-DIOXA-1-BORABICYCLO[4.3.1]DEC-4-EN-2-YL)ACETAMIDE] | X (key: X = MPC@4 ≤ 5 μg/mL; Y = 5 μg/mL < MPC@4 ≤ 20 μg/mL; Z = MPC@4 > 20 μg/mL) | Y (Y = 5 μg/mL < MPC@4 ≤ 20 μg/mL) | 100 to 1000 nM | < 100 nM | < 100 nM | X (X = MPC@4 ≤ 5 μg/mL) | X (X = MPC@4 ≤ 5 μg/mL) | Y (Y = 5 μg/mL < MPC@4 ≤ 20 μg/mL) | Z (Z = MPC@1 > 20 μg/mL) | – | < 100 nM | < 100 nM | < 100 nM | X (key: X = MPC@4 ≤ 5 μg/mL; Y = 5 μg/mL < MPC@4 ≤ 20 μg/mL; Z = MPC@4 > 20 μg/mL) | Y (Y = 5 μg/mL < MPC@4 ≤ 20 μg/mL) | X (X = MPC@1 ≤ 5 μg/mL) | X (X = MPC@4 ≤ 5 μg/mL) | X (X = MPC@4 ≤ 5 μg/mL) | X (X = MPC@4 ≤ 5 μg/mL) | Y (Y = 5 μg/mL < MPC@4 ≤ 20 μg/mL) | MPC@4 aztreonam potentiation [18]: X (X = MPC@4 ≤ 5 μg/mL); MPC@4 tigemonam potentiation [21]: Y (Y = 5 μg/mL < MPC@4 ≤ 20 μg/mL); MPC@4 tigemonam potentiation [23]: X (X = MPC@4 ≤ 5 μg/mL)
3 | C[C@]1(Cn2ccnn2)[C@H](C(=O)O)N2C(=O)C[C@H]2S1(=O)=O [Tazobactam, reference compound] | – | X (X = MPC@4 ≤ 5 μg/mL) | > 1000 nM | 100 to 1000 nM | – | X (X = MPC@4 ≤ 5 μg/mL) | X (X = MPC@4 ≤ 5 μg/mL) | Y (Y = 5 μg/mL < MPC@4 ≤ 20 μg/mL) | Y (Y = 5 μg/mL < MPC@1 ≤ 20 μg/mL) | Y (Y = 5 μg/mL < MPC@4 ≤ 20 μg/mL) | – | – | – | – | Z (Z = MPC@4 > 20 μg/mL) | Z (Z = MPC@1 > 20 μg/mL) | X (X = MPC@4 ≤ 5 μg/mL) | Z (Z = MPC@4 > 20 μg/mL) | Y (Y = 5 μg/mL < MPC@4 ≤ 20 μg/mL) | X (X = MPC@4 ≤ 5 μg/mL) | MPC@4 tigemonam potentiation ([1]; tigemonam 4 μg/mL, KP1010, SHV-12): X (X = MPC@4 ≤ 5 μg/mL); Ki [5]: 100 to 1000 nM; MPC@4 tigemonam potentiation ([16]; tigemonam 4 μg/mL, KP1009, CTX-M-15): Y (Y = 5 μg/mL < MPC@4 ≤ 20 μg/mL)
